EC50 data for eleven molecules are collected here from patent US12037339B2, “Substituted imidazoles as GLP-1 receptor agonists” (Eccogene Inc., priority 2020, dated 2024).

Each structure is given as a SMILES string.

Chain of (Homo sapiens, UniProt P43220) (P43220 24-463): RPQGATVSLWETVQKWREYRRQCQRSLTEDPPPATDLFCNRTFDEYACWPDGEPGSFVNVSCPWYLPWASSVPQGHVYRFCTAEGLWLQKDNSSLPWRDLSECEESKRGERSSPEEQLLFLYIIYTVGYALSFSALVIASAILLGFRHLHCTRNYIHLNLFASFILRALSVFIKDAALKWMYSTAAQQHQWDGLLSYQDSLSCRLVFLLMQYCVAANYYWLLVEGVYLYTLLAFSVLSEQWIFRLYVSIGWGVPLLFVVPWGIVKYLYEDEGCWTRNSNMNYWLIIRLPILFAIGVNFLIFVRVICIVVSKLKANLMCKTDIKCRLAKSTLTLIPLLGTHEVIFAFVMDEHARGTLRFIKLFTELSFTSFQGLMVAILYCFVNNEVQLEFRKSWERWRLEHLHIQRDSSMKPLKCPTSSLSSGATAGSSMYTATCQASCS

For this test, the target named is (Homo sapiens, UniProt P43220). Nature of the test: h-GLP-1 activity assay (cAMP HTRF, HEK293 cells with stable expression of human GLP-1). The test is classed as cell-based. Conditions: relative EC50, 10 nM human GLP-1 set as 100% response, 30 min at 37° C. The method, then:
Human GLP-1 agonizing activity was detected in HEK293 cells with stable expression of human GLP-1 by Cisbio cAMP Gs dynamic kit (Catalog #62AM4PEC) according to manufacturer's protocol. Briefly, cells were collected and resuspended in assay buffer containing 0.1% BSA and 0.5 mM of IBMX at concentration to 2.5×10^5 cells/mL. Two μL 5× compound solution and 8 μL cell suspension were added to each well of low-volume 384 white assay plate. After 30 min incubation at 37° C., 5 μL cAMP-d2 working solution and 5 μL anti-cAMP antibody-cryptate were added to each well, and incubate at room temperature for 1 hr. Series dilution of cAMP was used as standard. Human GLP-1 (7-37) was used as positive control and 10 nM human GLP-1 was set as 100% response. HTRF signals were read at 665 and 615 nm with EnVision plate reader and calculated cAMP concentration by interpolation to the standard curve. The EC50 value of the tested compounds was calculated by fitting the dose response curve using a 4-parameter non-linear regression routine and relative EC50 was presented in Table 29.
For orientation: EC50 means the concentration needed to bring the measured effect to its halfway point. A low value points to an effect from little substance. Regarding `Cc1cc(-n2nc3c(c2-n2ccn(-c4ccc5c(cnn5C)c4F)c2=O)CN(C(=O)c2cc4cc(C5CCOCC5)ccc4n2-c2ccccc2-c2noc(=O)[nH]2)CC3)cc(C)c1F` [Compound 37, 3-(2-(2-(3-(3-(4-fluoro-1-methyl-1H-indazol-5-yl)-2-oxo-2,3-dihydro-1H-imidazol-1-yl)-2-(4-fluoro-3,5-dimethylphenyl)-4,5,6,7-tetrahydro-2H-pyrazolo[4,3-c]pyridine-5-carbonyl)-5-(tetrahydro-2H-pyran-4-yl)-1H-indol-1-yl)phenyl)-1,2,4-oxadiazol-5(4H)-one], the 50% effective concentration (EC50) was above 100 nM.

In turn, `C[C@H]1c2c(-n3ccn(-c4ccc5c(cnn5C)c4F)c3=O)c(-c3ccc(F)cc3)nn2CCN1C(=O)c1cc2cc([C@H]3CCOC(C)(C)C3)ccc2n1C1(c2noc(=O)[nH]2)CC1` (single isomer, unassigned) [Compound 31] came in with an EC50 above 100 nM.

With `Cc1cc(-n2nc3c(c2-n2ccn(-c4ccc5c(cnn5C)c4F)c2=O)[C@H](C)N(C(=O)c2cn4cc([C@@H]5CCOC(C)(C)C5)ccc4c2[C@@]2(c4noc(=O)[nH]4)C[C@@H]2C)CC3)cc(C)c1F` (single isomer, unassigned) [Compound 3], the EC50 is below 20 nM.

On to `C[C@H]1c2c(nn(-c3cc(F)c(F)c(F)c3)c2-n2ccn(-c3ccc4c(cnn4C)c3F)c2=O)CCN1C(=O)c1cc2cc([C@@H]3CCOC(C)(C)C3)ccn2c1C1(c2noc(=O)[nH]2)CC1` (single isomer, unassigned) [Compound 72], for which the EC50 is below 20 nM.

Turning to `Cc1cc(-c2nn3c(c2-n2ccn(-c4ccc5c(cnn5C)c4F)c2=O)[C@H](C)N(C(=O)c2cc4cc([C@@H]5CCOC(C)(C)C5)ccc4n2C2(c4noc(=O)[nH]4)CC2)CC3)cc(C)c1F` (single isomer, unassigned) [Compound 25], the EC50 is above 100 nM.

Take `Cc1cc(-c2ccc3c(c2)cc(C(=O)N2CCn4nc(-c5ccc(F)cc5)c(-n5ccn(-c6ccc7c(cnn7C)c6F)c5=O)c4[C@@H]2C)n3C2(c3noc(=O)[nH]3)CC2)ccn1` (single isomer, unassigned) [Compound 7]: the EC50 is below 20 nM.

Take `C[C@H]1c2c(nn(-c3ccc(F)c(C4CC4)c3)c2-n2ccn(-c3ccc4c(cnn4C)c3F)c2=O)CCN1C(=O)c1cn2nc([C@H]3CCOC(C)(C)C3)ccc2c1C1(c2noc(=O)[nH]2)CC1` (single isomer, unassigned) [Compound 89]: the EC50 lay within 20 to 100 nM.

In turn, `Cc1cc(-c2nn3c(c2-n2ccn(-c4ccc5c(cnn5C)c4F)c2=O)[C@@H](C)N(C(=O)c2cc4cc([C@@H]5CCOC(C)(C)C5)ccn4c2C2(c4noc(=O)[nH]4)CC2)CC3)cc(C)c1F` (single isomer, unassigned) [Compound 68] displayed an EC50 below 20 nM.

In turn, `C[C@H]1c2c(-n3ccn(-c4ccc5c(cnn5C)c4F)c3=O)c(-c3ccc(F)cc3)nn2CCN1C(=O)c1cn2cc([C@@H]3CCOC(C)(C)C3)ccc2c1C1(c2noc(=O)[nH]2)CC1` (single isomer, unassigned) [Compound 14] showed an EC50 below 20 nM.

`Cc1cc(-n2nc3c(c2-n2ccn(-c4ccc5c(cnn5C)c4F)c2=O)[C@H](C)N(C(=O)c2cn4cc(N5CCOC(C)(C)C5)ccc4c2C2(c4noc(=O)[nH]4)CC2)CC3)cc(C)c1F` [Compound 1, (S)-3-(1-(6-(2,2-dimethylmorpholino)-2-(3-(3-(4-fluoro-1-methyl-1H-indazol-5-yl)-2-oxo-2,3-dihydro-1H-imidazol-1-yl)-2-(4-fluoro-3,5-dimethylphenyl)-4-methyl-4,5,6,7-tetrahydro-2H-pyrazolo[4,3-c]pyridine-5-carbonyl)indolizin-1-yl)cyclopropyl)-1,2,4-oxadiazol-5(4H)-one] gave an EC50 below 20 nM.

As for `C[C@H]1c2c(nn(-c3ccc(F)c(C4CC4)c3)c2-n2ccn(-c3ccc4c(cnn4C)c3F)c2=O)CCN1C(=O)c1cc2nc([C@H]3CCOC(C)(C)C3)ccn2c1C1(c2noc(=O)[nH]2)CC1` (single isomer, unassigned) [Compound 101], the EC50 is above 100 nM.
